This note sets out measurements from patent US8865623B2, “Herbicidally active cyclic diones and derivatives thereof, processes for their preparation, compositions, and method of controlling weeds” (Syngenta Limited, priority 2009, dated 2014).

Format in all cases: in vivo
Assay [1] has as its system Echinochloa crus-galli (ECHCG). The assay can be described thus: Post-emergence herbicidal activity, glasshouse pot test. To be noted: Echinochloa crus-galli, 312 h, rate 250 g/ha, evaluated after 13 days, read-out: Post-emergence activity ECHCG (100=total damage to plant; 0=no damage to plant). The method, boiled down: (§1)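 Test species are sown in pots of standard soil and sprayed either one day after sowing or after 8 days of cultivation, for pre- and post-emergence respectively. Plants grow in a controlled glasshouse, watered twice daily, and damage is assessed at 13 days, 0 to 100.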

For assay [2], the system named is Avena fatua (AVEFA). The description is as above. The following applies: Avena fatua, 312 h, rate 250 g/ha, evaluated after 13 days, read-out: Post-emergence activity AVEFA (100=total damage to plant; 0=no damage to plant). In short, it runs like this:
as §1

Assay [3] has as its system Lolium perenne (LOLPE). Described as above. The following applies: Lolium perenne, 312 h, rate 250 g/ha, evaluated after 13 days, read-out: Post-emergence activity LOLPE (100=total damage to plant; 0=no damage to plant). The method, boiled down:
as §1

Assay [4] deals with Alopecurus myosuroides (ALOMY). Described as above. The following applies: Alopecurus myosuroides, 312 h, rate 250 g/ha, evaluated after 13 days, read-out: Post-emergence activity ALOMY (100=total damage to plant; 0=no damage to plant). The method, boiled down:
as §1

Assay [5] relates to Echinochloa crus-galli (ECHCG). The assay can be described thus: Pre-emergence herbicidal activity, glasshouse pot test. The following applies: Echinochloa crus-galli, 312 h, Rate 250 g/ha, evaluated after 13 days, read-out: Pre-emergence activity ECHCG (100=total damage to plant; 0=no damage to plant). The method, boiled down: as §1
For assay [6], the system named is Avena fatua (AVEFA). Described as above. The following applies: Avena fatua, 312 h, Rate 250 g/ha, evaluated after 13 days, read-out: Pre-emergence activity AVEFA (100=total damage to plant; 0=no damage to plant). The method, boiled down:
as §1

In assay [7] the test system is Lolium perenne (LOLPE). The assay is described as above. The following applies: Lolium perenne, 312 h, Rate 250 g/ha, evaluated after 13 days, read-out: Pre-emergence activity LOLPE (100=total damage to plant; 0=no damage to plant). In short, it runs like this:
as §1

Assay [8] relates to Alopecurus myosuroides (ALOMY). The assay is described as above. The following applies: Alopecurus myosuroides, 312 h, Rate 250 g/ha, evaluated after 13 days, read-out: Pre-emergence activity ALOMY (100=total damage to plant; 0=no damage to plant). In short, it runs like this:
as §1

For the molecule `CCc1ccc(Oc2nnc3cc(Cl)ccc3n2)cc1C1=C(O)C(C)(C)OC(C)(C)C1=O` [Example A-237], the pest or weed control at 250 g/ha came to 70% in assay [1] (glasshouse); 10% in assay [2] (glasshouse); 10% in assay [3] (glasshouse); 10% in assay [4] (glasshouse); 40% in assay [5] (pre-emergence spray); 10% in assay [6] (pre-emergence spray). For the same molecule, the figures for the pest or weed control at 250 g/ha in assay [7] (pre-emergence spray) and in assay [8] (pre-emergence spray) were 20% and 10%, respectively.
As to `CCc1ccc(Oc2ccc(Br)c(C)c2)cc1C1=C(O)C(C)(C)OC(C)(C)C1=O` [Example A-11], the pest or weed control at 250 g/ha stood at 60% in assay [1] (glasshouse); 20% in assay [2] (glasshouse); 50% in assay [3] (glasshouse); 50% in assay [4] (glasshouse); 0% in assay [5] (pre-emergence spray); 0% in assay [6] (pre-emergence spray). The pest or weed control at 250 g/ha in assay [7] (pre-emergence spray) and in assay [8] (pre-emergence spray) was 0% throughout.
Take `CCc1ccc(Oc2nc3ccc([N+](=O)[O-])cc3s2)cc1C1=C(O)CC2(CCOCC2)CC1=O` [Example A-265]: the pest or weed control at 250 g/ha in assay [1] (glasshouse) is 100%; in assay [2] (glasshouse), 70%; in assay [3] (glasshouse), 70%; in assay [4] (glasshouse), 70%; in assay [5] (pre-emergence spray), 90%; in assay [6] (pre-emergence spray), 0%. Further, the pest or weed control at 250 g/ha came to 80% in assay [7] (pre-emergence spray) and 60% in assay [8] (pre-emergence spray).
For `CCc1ccc(Oc2nc3ccccc3s2)cc1C1=C(O)C(C)(C)OC(C)(C)C1=O` [Example A-105], the pest or weed control at 250 g/ha in assay [1] (glasshouse) was 90%; in assay [2] (glasshouse) it was 10%; in assay [3] (glasshouse) it was 90%; in assay [4] (glasshouse), 90%; in assay [5] (pre-emergence spray), 100%; in assay [6] (pre-emergence spray), 10%. Moreover, the figures for the pest or weed control at 250 g/ha in assay [7] (pre-emergence spray) and in assay [8] (pre-emergence spray) were 100% and 70%, respectively.
For `CCc1ccc(Oc2ccc(Cl)cc2OC)cc1C1=C(O)C(C)(C)OC(C)(C)C1=O` [Example A-181], the pest or weed control at 250 g/ha came to 30% in assay [1] (glasshouse); 0% in assay [2] (glasshouse); 20% in assay [3] (glasshouse); 0% in assay [4] (glasshouse); 0% in assay [5] (pre-emergence spray); 0% in assay [6] (pre-emergence spray). Moreover, the pest or weed control at 250 g/ha in assay [7] (pre-emergence spray) and in assay [8] (pre-emergence spray) was 0% each time.
For the molecule `CCc1ccc(Oc2nc3ccc(OC)cc3s2)cc1C1=C(O)[C@@H]2CC[C@](C)(C1=O)C2(C)C` [Example A-326], the pest or weed control at 250 g/ha worked out at 100% in assay [1] (glasshouse); 90% in assay [2] (glasshouse); 90% in assay [3] (glasshouse); 30% in assay [4] (glasshouse); 70% in assay [5] (pre-emergence spray); 10% in assay [6] (pre-emergence spray). Besides, the figures for the pest or weed control at 250 g/ha in assay [7] (pre-emergence spray) and in assay [8] (pre-emergence spray) were 90% and 30%, respectively.
With `CCc1ccc(Oc2nc3c(Cl)c(OC)ccc3s2)cc1C1=C(O)C(C)(C)OC(C)(C)C1=O` [Example A-216], the pest or weed control at 250 g/ha in assay [1] (glasshouse) was found to be 80%; in assay [2] (glasshouse) it was 70%; in assay [3] (glasshouse) it was 70%; in assay [4] (glasshouse), 60%; in assay [5] (pre-emergence spray), 70%; in assay [6] (pre-emergence spray), 0%. Also, the results for the pest or weed control at 250 g/ha in assay [7] (pre-emergence spray) and in assay [8] (pre-emergence spray) were 10% and 30%, respectively.
For `CCc1ccc(Oc2ccc(Br)cc2)cc1C1=C(O)CC(C)(C)CC1=O` [Example A-48], the pest or weed control at 250 g/ha was 100% in assay [1] (glasshouse); 40% in assay [2] (glasshouse); 70% in assay [3] (glasshouse); 80% in assay [4] (glasshouse); 100% in assay [5] (pre-emergence spray); 30% in assay [6] (pre-emergence spray). Moreover, the pest or weed control at 250 g/ha in assay [7] (pre-emergence spray) came to 70%; in assay [8] (pre-emergence spray), 100%.
For `CCc1ccc(Oc2ccc(Cl)cc2Cl)cc1C1=C(O)CC(C)(C)CC1=O` [Example A-71], the pest or weed control at 250 g/ha in assay [1] (glasshouse) turned out to be 90%; in assay [2] (glasshouse), 30%; in assay [3] (glasshouse) it was 60%; in assay [4] (glasshouse) it was 60%; in assay [5] (pre-emergence spray), 90%; in assay [6] (pre-emergence spray) it was 0%. Also, the pest or weed control at 250 g/ha in assay [7] (pre-emergence spray) was determined as 40%; in assay [8] (pre-emergence spray), 30%.
For the molecule `CCc1ccc(Oc2ccc(Br)cc2)cc1C1=C(O)[C@H]2CC[C@H](C2)C1=O` (single isomer, unassigned) [Example A-91], the pest or weed control at 250 g/ha in assay [1] (glasshouse) was determined as 100%; in assay [2] (glasshouse), 90%; in assay [3] (glasshouse) it was 80%; in assay [4] (glasshouse) it was 90%; in assay [5] (pre-emergence spray), 100%; in assay [6] (pre-emergence spray), 70%. The figures for the pest or weed control at 250 g/ha in assay [7] (pre-emergence spray) and in assay [8] (pre-emergence spray) were 100% and 80%, respectively.
Regarding `CCc1ccc(Oc2nc3ccc(C)cc3s2)cc1C1=C(O)C(C)(C)OC(C)(C)C1=O` [Example A-168], the pest or weed control at 250 g/ha was found to be 90% in assay [1] (glasshouse); 20% in assay [2] (glasshouse); 90% in assay [3] (glasshouse); 90% in assay [4] (glasshouse); 70% in assay [5] (pre-emergence spray); 10% in assay [6] (pre-emergence spray). Further, the pest or weed control at 250 g/ha turned out to be 80% in assay [7] (pre-emergence spray) and 60% in assay [8] (pre-emergence spray).
Consider `CCc1ccc(Oc2c(F)cc(C(F)(F)F)cc2F)cc1C1=C(O)C(C)(C)OC(C)(C)C1=O` [Example A-205], for which the pest or weed control at 250 g/ha in assay [1] (glasshouse) came out at 100%; in assay [2] (glasshouse), 60%; in assay [3] (glasshouse) it was 90%; in assay [4] (glasshouse), 70%; in assay [5] (pre-emergence spray), 60%; in assay [6] (pre-emergence spray), 10%. In addition, the pest or weed control at 250 g/ha is 60% in assay [7] (pre-emergence spray) and 20% in assay [8] (pre-emergence spray).
Consider `CCc1ccc(Oc2nc3ccccc3s2)cc1C1=C(O)[C@@H]2CC[C@](C)(C1=O)C2(C)C` [Example A-319], for which the pest or weed control at 250 g/ha in assay [1] (glasshouse) stood at 100%; in assay [2] (glasshouse) it was 100%; in assay [3] (glasshouse), 100%; in assay [4] (glasshouse), 100%; in assay [5] (pre-emergence spray), 100%; in assay [6] (pre-emergence spray) it was 70%. The values for the pest or weed control at 250 g/ha in assay [7] (pre-emergence spray) and in assay [8] (pre-emergence spray) were 100% and 90%, respectively.
Regarding `CC1(C)OC(C)(C)C(O)=C(c2cc(Oc3ncc(Cl)cc3C(F)(F)F)ccc2C2CC2)C1=O` [Example A-377], the pest or weed control at 250 g/ha was 100% in assay [1]; 100% in assay [2]; 100% in assay [3]; 100% in assay [4]; 100% in assay [5] (pre-emergence); 60% in assay [6] (pre-emergence). Moreover, the pest or weed control at 250 g/ha in assay [7] (pre-emergence) was 80%; in assay [8] (pre-emergence), 70%.
Regarding `CCc1ccc(Oc2nc3ccccc3s2)cc1C1=C(O)CC2(CCOCC2)CC1=O` [Example A-303], the pest or weed control at 250 g/ha worked out at 100% in assay [1] (glasshouse); 100% in assay [2] (glasshouse); 100% in assay [3] (glasshouse); 100% in assay [4] (glasshouse); 100% in assay [5] (pre-emergence spray); 80% in assay [6] (pre-emergence spray). The pest or weed control at 250 g/ha in assay [7] (pre-emergence spray) was found to be 90%; in assay [8] (pre-emergence spray) it was 80%.
